Structures are written as SMILES.

Test [1] concerns the target T1, mTRPV1 (mouse TRPV1) (Mus musculus, UniProt Q704Y3).
T1 construct: full-length mTRPV1 cDNA in pEYFP-N3, C-terminal eYFP fusion, transiently expressed in HEK293 cells; homotetramer
Nature of the test: patch-clamp of transfected HEK293 cells, concentration-response, Hill fit. Format: cell-based.

In test [2] the target is T2, mTRPV1 (mouse TRPV1) (Mus musculus, UniProt Q704Y3, INS430GGG).
T2 construct: full-length mTRPV1 cDNA in pEYFP-N3, C-terminal eYFP fusion, transiently expressed in HEK293 cells; homotetramer
Described as above. The format is cell-based.

T2 sequence (Q704Y3 with tags, fused parts or gaps INS430GGG): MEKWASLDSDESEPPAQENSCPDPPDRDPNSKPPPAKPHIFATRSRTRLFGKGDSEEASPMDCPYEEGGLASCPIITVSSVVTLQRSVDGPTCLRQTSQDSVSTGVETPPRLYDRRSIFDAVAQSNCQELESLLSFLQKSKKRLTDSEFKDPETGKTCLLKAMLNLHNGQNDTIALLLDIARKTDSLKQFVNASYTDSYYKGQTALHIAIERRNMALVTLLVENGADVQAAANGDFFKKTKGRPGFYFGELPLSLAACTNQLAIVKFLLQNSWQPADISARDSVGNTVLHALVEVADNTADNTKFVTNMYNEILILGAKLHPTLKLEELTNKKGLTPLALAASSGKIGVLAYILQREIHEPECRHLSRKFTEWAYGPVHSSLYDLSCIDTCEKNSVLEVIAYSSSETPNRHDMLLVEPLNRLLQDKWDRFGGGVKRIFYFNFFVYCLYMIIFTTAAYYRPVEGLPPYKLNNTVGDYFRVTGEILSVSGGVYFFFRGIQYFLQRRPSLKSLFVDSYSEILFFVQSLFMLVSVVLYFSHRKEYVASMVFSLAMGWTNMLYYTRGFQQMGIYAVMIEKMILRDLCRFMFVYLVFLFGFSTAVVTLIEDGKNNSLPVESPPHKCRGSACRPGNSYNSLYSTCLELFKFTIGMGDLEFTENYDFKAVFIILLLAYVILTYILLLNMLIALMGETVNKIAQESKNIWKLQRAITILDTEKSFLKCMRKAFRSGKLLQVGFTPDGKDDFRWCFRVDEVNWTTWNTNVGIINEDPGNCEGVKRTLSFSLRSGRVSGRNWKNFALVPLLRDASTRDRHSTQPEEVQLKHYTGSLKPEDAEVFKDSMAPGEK
T1 sequence (Q704Y3 whole entry, the tested form may be a part): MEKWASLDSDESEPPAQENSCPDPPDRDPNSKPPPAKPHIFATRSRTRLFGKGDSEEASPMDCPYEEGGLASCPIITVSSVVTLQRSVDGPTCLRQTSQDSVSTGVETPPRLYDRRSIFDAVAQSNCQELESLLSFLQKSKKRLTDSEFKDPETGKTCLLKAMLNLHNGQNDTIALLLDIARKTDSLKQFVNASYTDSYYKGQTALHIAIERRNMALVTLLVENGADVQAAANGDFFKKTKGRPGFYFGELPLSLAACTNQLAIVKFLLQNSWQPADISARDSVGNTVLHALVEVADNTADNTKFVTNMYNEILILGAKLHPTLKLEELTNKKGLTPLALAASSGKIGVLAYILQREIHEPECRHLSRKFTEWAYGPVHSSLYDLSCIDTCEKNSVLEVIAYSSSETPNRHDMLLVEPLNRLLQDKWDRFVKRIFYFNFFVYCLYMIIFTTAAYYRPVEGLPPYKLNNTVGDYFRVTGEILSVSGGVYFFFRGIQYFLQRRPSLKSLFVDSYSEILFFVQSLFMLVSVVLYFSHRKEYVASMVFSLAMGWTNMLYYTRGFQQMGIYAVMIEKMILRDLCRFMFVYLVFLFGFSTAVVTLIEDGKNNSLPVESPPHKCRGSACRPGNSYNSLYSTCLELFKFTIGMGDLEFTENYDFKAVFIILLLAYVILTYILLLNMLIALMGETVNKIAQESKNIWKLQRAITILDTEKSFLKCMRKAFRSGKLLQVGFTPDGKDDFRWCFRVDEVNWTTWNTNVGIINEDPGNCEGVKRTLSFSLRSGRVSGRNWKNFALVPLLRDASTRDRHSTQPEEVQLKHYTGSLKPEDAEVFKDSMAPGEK

As to `COc1cc(CNC(=O)CCCC/C=C/C(C)C)ccc1O` [capsaicin], the figures for the half-maximal effective concentration (EC50) on mTRPV1 (mouse TRPV1) [1] and on mTRPV1 (mouse TRPV1) [2] were 150 ± 20 nM and 70 ± 30 nM, respectively.
